Results reported in patent EP4741383A1, “COMPOUND AND USE THEREOF AS ANTI-CANCER DRUG” (Tyligand Bioscience (Shanghai) Limited, priority 2023, dated 2025).

Tests used:
MV4-11 = test: CellTiter-Glo cell proliferation inhibition, MV4-11; type: cell-based, human; settings: for IC50: Homo sapiens, MV4-11 cells, 72 hours, CellTiter-Glo, read-out: IC50 (µM) M V4-11
Excerpt: (§1) In this study, the CellTiter-Glo® Luminescent Cell Viability Assay kit from Promega was used to evaluate the inhibitory effects of the disclosed compounds on the proliferation of cell lines KYSE520 (a human esophageal squamous cell carcinoma cell line dependent on SHP2 for growth), MeWo (a human malignant melanoma cell line), and MV4-11 (an RTK-mutant human acute monocytic leukemia cell line).
Using essentially the same experimental materials, MV4-11 cells (Nanjing Cobio Biotechnology Co., Ltd., Catalog #CBP60522) were treated similarly: when thawing the cells, the cryovial was rapidly shaken in a 37 °C water bath to thaw within 1 minute. The thawed cell suspension was mixed with IMDM culture medium containing 10% FBS (HyClone, Catalog #SH30228.01), centrifuged at 1000 rpm for 7 minutes, and the supernatant was discarded. The cell pellet was resuspended in 5 mL of complete culture medium (IMDM medium containing 10% FBS) placed in a cell culture flask with 25 cm^2 of bottom area, and cultured in a cell culture incubator at 37 °C, 95% humidity, and 5% CO2. Cell passaging was performed when the cell density reached approximately 10^6 cells/mL. During cell passaging, the old cell suspension was thoroughly mixed, 1/5 of the cell suspension was retained, and 4 mL of new complete culture medium was added. After thorough mixing, the cells were placed back in the cell culture incubator for further culture. Cell plating was performed when the cell density again reached approximately 10^6 cells/mL. During cell plating, following the cell passage method, 1/5 of the cell suspension was retained for continued culture, and the remaining 4/5 of the cell suspension was placed in a 15 mL centrifuge tube. Cell viability was determined using the trypan blue exclusion method to ensure that cell viability was above 90%. A cell suspension with a density of 1.11 × 10^5 viable cells/mL was prepared using complete culture medium. 90 µL of the cell suspension was added to a 96-well cell culture plate, resulting in a cell density of 10000 viable cells/well. A control group without cells and without compounds, containing only complete culture medium (i.e., culture medium control) and a control group without compounds but containing cells (i.e., cell control) were set up. The cell plate was incubated overnight in the cell culture incubator. First, a 10 mM stock solution of the compound (Example compound and positive control compound 11a-1) in DMSO was serially diluted with DMSO at a 3-fold dilution, down to the 9th concentrations. A 10th concentration containing only DMSO (without the compound) was also prepared as a control. Then, the DMSO solutions containing different concentrations of the compound were diluted 100-fold with complete culture medium, resulting in a DMSO concentration of 1% in each solution. Finally, 10 µL of each solution was added to the corresponding wells of a cell culture plate, resulting in an initial compound concentration of 10 µM, with a 3-fold dilution between adjacent concentrations, and a DMSO concentration of 0.1% in the cell culture plate. The cell plate was then incubated in a cell culture incubator for 72 hours.
For endpoint detection, CellTiter-Glo reagent (Promega, catalog number #G7573, CellTiter-Glo® Luminescent Cell Viability Assay Kit) was melt and each cell plate was moved to room temperature for equilibration for 30 minutes. 75 µL (KYSE520 cells) or 50 µL (MeWo cells and MV 4-11 cells) of CellTiter-Glo was added to each well of the corresponding cell plate. The plates were shaken on a track-mounted shaker for 2 minutes to fully lyse the cells. The cell plates were kept at room temperature for 8 minutes to stabilize the luminescence signal. A multi-mode microplate reader (PerkinEImer, Envision 2105 Multimode plate Read) was used to full-wavelength scan the luminescence value of each well. […]

MeWo = test: CellTiter-Glo cell proliferation inhibition, MeWo; type: cell-based, human; settings: for IC50: MeWo cells, CellTiter-Glo
Description: as §1
Using essentially the same experimental materials, MeWo cells (ATCC, catalog #HTB-65) were treated similarly: when thawing the cells, the cryovial was rapidly shaken in a 37 °C water bath to thaw the cells within 1 minute. The thawed cell suspension was mixed with MEM/EBSS culture medium containing 10% FBS (HyClone, catalog #SH30024.01), centrifuged at 1000 rpm for 5 minutes, and the supernatant was discarded. The cell pellet was resuspended in 5 mL of complete culture medium (MEM/EBSS medium containing 10% FBS), placed in a cell culture flask with 25 cm^2 of bottom area, and cultured in a cell culture incubator at 37 °C, 95% humidity, and 5% CO2. Cell passaging was performed when the cell confluence reached approximately 80%. During cell passaging, the old culture medium was discarded, the cells were washed once with DPBS, and 1 mL of trypsin was added to digest the cells. When the cells dispersed into single cells and detached from the bottom of the cell culture flask, 3 mL of new complete culture medium was added to stop the digestion. After thoroughly mixing the cell suspension, 1/5 of the cell suspension was retained, 5 mL of new complete culture medium was added, and after thorough mixing, the cells were placed in a cell culture flask for further culture. Cell plating was performed when the cell confluence again reached approximately 80%. During cell plating, following the cell passaging method, 1/5 of the cell suspension was retained for further culture, and the remaining 4/5 of the cell suspension was placed in a 15 mL centrifuge tube. Cell viability was determined using the trypan blue exclusion method to ensure that cell viability was above 90%. A cell suspension with a density of 2.22 × 10^4 cells/mL was prepared using MEM/EBSS culture medium containing 5% FBS. 90 µL of the cell suspension was added to a 96-well cell culture plate, resulting in a cell density of 2000 viable cells/well in the cell culture plate. A control group without cells and without compounds, containing only complete culture medium (i.e., culture medium control), and a control group without compounds but containing cells (i.e., cell control) were set up. The cell plate was cultured overnight in the cell culture incubator. First, a 10 mM stock solution of the compound (Example compound and positive control compound 11a-1) in DMSO was serially diluted with DMSO at a 3-fold dilution, down to the 9th concentration. A 10th concentration containing only DMSO (without the compound) was also prepared as a control. Then, the DMSO solutions containing different concentrations of the compound were diluted 100-fold with complete culture medium, resulting in a 1% DMSO concentration in each solution. Finally, 10 µL of each solution was added to the corresponding wells of the cell culture plate, resulting in a starting compound concentration of 10 µM, with a 3-fold dilution between adjacent concentrations, and a 0.1% DMSO concentration in the cell culture plate. The cell plates were then incubated in a cell culture incubator for 72 hours.
For endpoint detection, CellTiter-Glo reagent (Promega, catalog number #G7573, CellTiter-Glo® Luminescent Cell Viability Assay Kit) was melt and each cell plate was moved to room temperature for equilibration for 30 minutes. 75 µL (KYSE520 cells) or 50 µL (MeWo cells and MV 4-11 cells) of CellTiter-Glo was added to each well of the corresponding cell plate. The plates were shaken on a track-mounted shaker for 2 minutes to fully lyse the cells. The cell plates were kept at room temperature for 8 minutes to stabilize the luminescence signal. […]

Row | Compound | IC50 (MV4-11) | IC50 against MV4-11 cells, fold lower than 11a-1 (MV4-11; relative to 11a-1 (5.13 µM)) | IC50 (MeWo; Homo sapiens, MeWo, 72 h) | IC50 (MeWo; 72 hours) | IC50 against Mewo cells, fold lower than 11a-1 (MeWo; relative to 11a-1 (3.10 µM))
1 | CC1(n2c(-c3ccc(NC(=O)C(=O)Nc4ccc(N5CCC6(CCOC6)CC5)cc4)cc3)cc3cc(F)c(-c4nnn[nH]4)cc32)CC1 [Example 70] | 4.25 µM | – | 0.213 µM | – | –
2 | O=C(Nc1ccc(-c2cc3cc(F)c(-c4nnn[nH]4)cc3n2C2CCC2)cc1)C(=O)Nc1ccc(N2CC3(CCOCC3)C2)cc1 [Example 57] | 0.127 µM | – | 0.096 µM | – | –
3 | Cn1c(-c2cccc(NC(=O)C(=O)Nc3ccc(-c4ccsc4)cc3)c2)c(I)c2cc(C(=O)O)c(O)cc21 [Example 11a-1, reference compound] | 5.13 µM | – | 3.1 µM | – | –
4 | CC1(O)CC2(CCN(c3ccc(NC(=O)C(=O)Nc4ccc(-c5cc6cc(F)c(-c7nnn[nH]7)cc6n5C5CCC5)cc4)cc3)CC2)C1 [Example 94] | 0.237 µM | – | 0.041 µM | – | –
5 | O=C(Nc1ccc(-c2cc3cc(F)c(-c4nnn[nH]4)cc3n2C2CCC2)cc1)C(=O)Nc1ccc(N2CCC3(CC2)CC(CO)C3)cc1 [Example 96] | > 10 µM | – | 0.103 µM | – | –
6 | O=C(Nc1ccc(-c2cc3cc(F)c(-c4nnn[nH]4)cc3n2C2CCC2)cc1)C(=O)Nc1ccc(N2CCC3(CCC(O)CC3)CC2)cc1 [Example 108] | 0.115 µM | – | 0.034 µM | – | –
7 | CC(C)(O)C1CCN(c2ccc(NC(=O)C(=O)Nc3ccc(-c4cc5cc(F)c(-c6nnn[nH]6)cc5n4C4CCC4)cc3)cc2)CC1 [Example 33] | > 10 µM | – | 0.117 µM | – | –
8 | CC1(O)CCC2(CCN(c3ccc(NC(=O)C(=O)Nc4ccc(-c5cc6cc(F)c(-c7nnn[nH]7)cc6n5C5CCC5)cc4)cc3)CC2)CC1 [Example 110] | 0.133 µM | – | 0.086 µM | – | –
9 | O=C(Nc1ccc(-c2cc3cc(F)c(-c4nnn[nH]4)cc3n2C2CCC2)cc1)C(=O)Nc1ccc(N2CCC3(CCOC3)CC2)cc1 [Example 67] | > 10 µM | – | 0.038 µM | – | –
10 | O=C(Nc1ccc(-c2cc3cc(F)c(-c4nnn[nH]4)cc3n2C2CCC2)cc1)C(=O)Nc1ccc(N2CCC3(CCC(O)C3)CC2)cc1 (stereo not drawn) [Example 100] | 0.126 µM | – | 0.038 µM | – | –
11 | CC1(n2c(-c3ccc(NC(=O)C(=O)Nc4ccc(N5CCC6(CCOCC6)CC5)cc4)cc3)cc3cc(F)c(-c4nnn[nH]4)cc32)CCC1 [Example 77] | 0.094 µM | – | 0.034 µM | – | –
12 | O=C(Nc1ccc(-c2csc(CO)c2)cc1)C(=O)Nc1ccc(-c2cc3cc(F)c(-c4nnn[nH]4)cc3n2C2CCC2)cc1 [Example 1] | 0.097 µM | – | 0.032 µM | – | –
13 | CC1(n2c(-c3ccc(NC(=O)C(=O)Nc4ccc(N5CCC6(CCOC6)CC5)cc4)cc3)cc3cc(F)c(-c4nnn[nH]4)cc32)CCC1 [Example 68] | 0.06 µM | 85 fold | 0.06 µM | 0.031 µM | 100 fold
14 | CC1(CO)CCN(c2ccc(NC(=O)C(=O)Nc3ccc(-c4cc5cc(F)c(-c6nnn[nH]6)cc5n4C4CCC4)cc3)cc2)CC1 [Example 40] | 0.269 µM | – | 0.073 µM | – | –
15 | O=C(Nc1ccc(-c2cc3cc(F)c(-c4nnn[nH]4)cc3n2C2CCC2)cc1)C(=O)Nc1ccc(N2CCC3(CCC(O)C3)C2)cc1 (stereo not drawn) [Example 92] | 0.123 µM | – | 0.098 µM | – | –
16 | CC1(n2c(-c3ccc(NC(=O)C(=O)Nc4ccc(-c5cnn(C6COC6)c5)cc4)cc3)cc3cc(F)c(-c4nnn[nH]4)cc32)CC1 [Example 6] | 0.358 µM | – | 0.113 µM | – | –
17 | CC1(n2c(-c3ccc(NC(=O)C(=O)Nc4ccc(-c5cnn(C6CCOCC6)c5)cc4)cc3)cc3cc(F)c(-c4nnn[nH]4)cc32)CC1 [Example 7] | 0.254 µM | – | 0.111 µM | – | –

Second part, led by results:

Row | IC50 (MV4-11) | IC50 against MV4-11 cells, fold lower than 11a-1 (MV4-11; relative to 11a-1 (5.13 µM)) | Compound | IC50 (MeWo; Homo sapiens, MeWo, 72 h) | IC50 (MeWo; 72 hours) | IC50 against Mewo cells, fold lower than 11a-1 (MeWo; relative to 11a-1 (3.10 µM))
18 | 0.108 µM | – | O=C(Nc1ccc(-c2cc3cc(F)c(-c4nnn[nH]4)cc3n2C2CCC2)cc1)C(=O)Nc1ccc(N2CCC(CCO)CC2)cc1 [Example 25] | 0.04 µM | – | –
19 | 0.262 µM | – | O=C(Nc1ccc(-c2cc3cc(F)c(-c4nnn[nH]4)cc3n2C2CCC2)cc1)C(=O)Nc1ccc(N2CCC(CO)C2)cc1 (stereo not drawn) [Example 12] | 0.082 µM | – | –
20 | 0.263 µM | – | O=C(Nc1ccc(-c2cc3cc(F)c(-c4nnn[nH]4)cc3n2C2CCC2)cc1)C(=O)Nc1ccc(N2CC3CC(O)CC3C2)cc1 (stereo not drawn) [Example 116] | 0.067 µM | – | –
21 | 0.156 µM | – | O=C(Nc1ccc(-c2cc3cc(F)c(-c4nnn[nH]4)cc3n2C2CCC2)cc1)C(=O)Nc1ccc(N2CC3COCC3C2)cc1 (stereo not drawn) [Example 114] | 0.078 µM | – | –
22 | 0.095 µM | – | O=C(Nc1ccc(-c2cc3cc(F)c(-c4nnn[nH]4)cc3n2C2CCC2)cc1)C(=O)Nc1ccc(N2CCC3(CC(O)C3)C2)cc1 (stereo not drawn) [Example 89] | 0.036 µM | – | –
23 | 3.03 µM | – | O=C(Nc1ccc(-c2cc3cc(F)c(-c4nnn[nH]4)cc3n2C2CCC2)cc1)C(=O)Nc1ccc(N2CCC3(CCOC3)C2)cc1 (stereo not drawn) [Example 61] | 0.115 µM | – | –
24 | > 10 µM | – | O=C(Nc1ccc(-c2cc3cc(F)c(-c4nnn[nH]4)cc3n2C2CCC2)cc1)C(=O)Nc1ccc(N2CCC(C3COC3)CC2)cc1 [Example 20] | 0.042 µM | – | –
